# Results as given in article PMC5842390, “Protection Efficacy of C5A Against Vaginal and Rectal HIV Challenges in Humanized Mice” (The Open Virology Journal, 2018).
# Like-named read-outs stand apart in the source and are kept apart here. Ends that are not written are not given here.
# How the values were obtained:
# HIV JR-CSF = type: in vivo, humanized BLT mice; details: for Slope parameter (m) of median-effect plot: median-effect model, analogous to Hill coefficient; for EC50: sigmoidal dose-response (variable slope) model, 6.25-200 µM, n=10 per concentration
# Text: Humanized BLT mice were created as described previously, by implanting 1-mm^3 pieces of human fetal liver and thymus tissues (Advanced Bioscience Resources) under the kidney capsule of 6- to 8-week-old female NSG mice (Jackson Laboratories) bred at The Scripps Research Institute (TSRI). Each cohort was produced with tissues from a single donor. CD34+ hematopoietic stem and progenitor cells (HSPC) were purified from autologous fetal liver tissue, isolated by magnetic bead selection for CD34+ cells (Miltenyi), phenotyped by flow cytometry, and cryopreserved until injection (200,000-350,000 CD34+ cells) into mice 3 weeks after fetal liver and thymus tissue implantation. Human cell population reconstitution in peripheral blood was confirmed by flow cytometry as described previously. Briefly, the degree of humanization of the BLT mice was evaluated at 20 weeks of age (10 weeks post-CD34+ HSPC injection) by analysis of percentages of human CD45+ cells and human CD45+ CD4+ CD3+ cells in peripheral blood by FACS. Mice with <65% human CD45+ cells and <70% human CD45+ CD4+ CD3+ cells were not used for HIV exposure experiments. Mice were kept at the Department of Animal Resources at TSRI in accordance with protocols approved by the TSRI Institutional Animal Care and Use Committee.
# Solutions of C5A peptides were prepared in phosphate buffered saline (PBS). After verifying the reconstitution of mice with human cells, a dose ranging study was conducted to determine the EC50 of C5A for preventing vaginal and rectal HIV infection. Stocks of HIV JR-CSF were prepared as previously described and standardized by p24 ELISA. Prior to inoculation, mice were anesthetized with isoflurane. Aliquots of C5A in PBS (5 µL) were administered vaginally or rectally in decreasing concentrations (200, 100, 50, 25, 12.5 and 6.25 µM; n=10 mice per concentration). Fifteen minutes post-C5A topical administration, mice were challenged (vaginal challenge for vaginal C5A administration, rectal challenge for C5A rectal administration) with HIV.
# Infection of BLT mice was analyzed by quantifying HIV RNA levels in peripheral blood (plasma) using one-step reverse transcriptase quantitative real-time PCR (ABI custom TaqMan Assays-by-Design) according to the manufacturer’s instructions. Primers were 5-[…]-3 and 5-TGCTTGATGT CCCCCCACT-3, and MGB-probe 5-FAM-[…]-Q-3, where FAM is 6-carboxyfluorescein [36-38, 40, 42, 44-47, 52-54]. The assay sensitivity was of […] 400 RNA copies per mL.
# Data were analyzed using GraphPad Prism (version 7.00, GraphPad Software, Inc., La Jolla, CA). Analytic simulations of dose-response curves using the median-effect principle and mass-action law, and its combination index theorem were carried out using CompuSyn.
# [1] = system: cervical epithelial cells; details: at a concentration of 10- to 100-fold greater than that which blocks HIV infection; cited from earlier work
# Text: The short amphipathic helical peptide SWLRDIWDWICEVLSDFK called C5A, was originally identified by the Chisari lab as an active anti-hepatitis C virus (HCV) agent. The C5A amino acid sequence encompasses the region that permits the anchoring of the HCV nonstructural protein 5A (NS5A) into the ER membrane by an in-plane amphipathic alpha-helix (Fig. 1).
# [2] = seminal plasma, cervical and vaginal fluids; cited from earlier work
# Text: (§1) In the absence of a safe and effective vaccine, there is an imperative demand for effective agents to reduce the 7,000 new HIV infections occurring every day. An attractive possibility is to identify the best drugs and drug combinations, delivered by optimal nBP methods such Intravaginal Rings (IVRs) for vaginal delivery and gels or enemas for rectal protection. We previously reported that C5A, a short, amphipathic, 18 amino acid (SWLRDIWDWICEVLSDFK) helical peptide, inhibits in vitro infectivity of a broad range of primary HIV isolates in various primary target cells. In this study, we ...
# HIV = details: cited from earlier work
# Text: as §1
# [3] = system: simian-human immunodeficiency virus (SHIV-162P3); details: vaginal application of C5A; ref 58 (b36 prints ref 57); cited from earlier work
# Text: as §1, with “... || Following these studies with unformulated C5A solutions applied topically, the next goal is to formulate C5A, alone and in combination with other antiretroviral agents, into murine intravaginal rings to evaluate sustained topical delivery approaches for protection against vaginal and rectal HIV challenges. We plan on using a combination of drugs with distinct mechanisms of action.” for “...”
# [4] = macaques vaginally treated with repeated C5A applications; cited from earlier work
# Text: Following these studies with unformulated C5A solutions applied topically, the next goal is to formulate C5A, alone and in combination with other antiretroviral agents, into murine intravaginal rings to evaluate sustained topical delivery approaches for protection against vaginal and rectal HIV challenges. We plan on using a combination of drugs with distinct mechanisms of action.
# HSV = details: Vero cells, human dendritic cells, primary genital epithelial cells in vitro, human epidermis ex vivo; cited from earlier work
# Text: Previous studies have shown that C5A inhibits HSV infection of Vero cells, human dendritic cells and primary genital epithelial cells in vitro as well as human epidermis (epidermal sheets) ex vivo, and that it inhibits acyclovir- and ganciclovir-resistant HSV isolates. Remarkably, in an in vitro transwell assay, C5A prevented HIV transmigration by preserving the integrity of the genital epithelium that ...
sequence,measurement,setting,value
SWLRDIWDWICEVLSDFK [C5A],Slope parameter (m) of median-effect plot,HIV JR-CSF; rectal compartment,7.7 ± 1.2
same,EC50,"HIV JR-CSF; rectal dosing, read-out: EC50 for protection against rectal HIV challenge",25.7 µM
same,Slope parameter (m) of median-effect plot,HIV JR-CSF; vaginal compartment,7.6 ± 1.2
same,EC50,"HIV JR-CSF; vaginal dosing, read-out: EC50 for protection against vaginal HIV challenge",32.5 µM
same,Toxicity to cervical epithelial cells,[1],not toxic
same,Antiviral activities in genital fluids,[2],maintains its antiviral activities
same,Antiviral activity between pH 5 and 7,HIV; pH 5 to 7,keeps is antiviral activity
same,Antiviral activity at pH 8,HIV; pH 8,loses its activity
same,Protection against a vaginal challenge of HIV,"HIV; topical vaginal administration of 200 µM C5A in PBS, humanized mice",100%
same,Macaques protected from SHIV-162P3 challenge,[3],89%
same,Signs of lesions or inflammation,[4],no signs of lesions or inflammation
same,Inhibition of HSV infection,HSV,efficiently inhibits
